Results taken from patent US20230381273A1, “NANOPARTICLE IN WHICH ANTIBACTERIAL PEPTIDE IS ENCAPSULATED WITH CHITOSAN AND USE THEREOF” (NATIONAL MARINE BIODIVERSITY INSTITUTE OF KOREA, priority 2022, published 2023).
Values after ≈ are worked out from the molar mass of the structure shown. Peptide text beside a SMILES is read from it.

How the values were obtained:
Type in all cases: cell-based
[1] = MTT cell viability assay (cytotoxicity); conditions: human, HEK293 cells
Procedure: After treating HEK293 cells with octominin-CNP and octominin, MTT (3-(4,5-dimethylthiazol-2-yl)-2,5-diphenyltetrazolium bromide) assay was performed to confirm cell viability.
First, HEK293 cells were cultured using DMEM (Dulbecco's modified Eagle's medium (Sigma-Aldrich, Munich, Germany)) containing 10% (v/v) fetal bovine serum (FBS, (Sigma-Aldrich, Munich, Germany)) and antibiotic-antimycotic (Thermo Fisher Scientific, Waltham, MA, USA). In addition, it was cultured for 24 hours under humidified conditions of 5% CO2 and 37° C. The cells were collected and seeded in a 96-well microplate at a cell density of 2.0×10^5 cells/mL (100 μL/well) and allowed to adhere to the well for 12 hours. The culture medium was then replaced, and they were treated with octominin-CNP (0 to 400 μg/mL) or octominin (0 to 400 μg/mL). After 24 hours of culture, the culture medium was replaced with fresh medium (90 μL), and 10 μL of MTT ([…]) was added to each well, followed by incubation at 37° C. for 4 hours. Then, 50 μL of DMSO was added to the wells in which the culture medium was eradicated to solubilize the resulting formazan dye. Their absorbances were measured at 595 nm using a microplate spectrophotometer (Bio-Rad, Saint Louis, (MO, USA)).

[2] = system: Candida albicans
Procedure: (§1) Prior to confirming the antibacterial and antifungal activity of octominin-CNP or free octominin, for the antibacterial activity of octominin against Acinetobacter baumannii (A. baumannii) through preliminary analysis, it was confirmed that minimum inhibitory concentration (MIC) was 5 μg/mL, and the minimum bactericidal concentration (MBC) was 10 μg/mL. In addition, for the antifungal activity against Candida albicans (C. albicans), it was confirmed that the MIC was 50 μg/mL and the minimum fungicidal concentration (MFC) was 200 μg/mL. Accordingly, the antibacterial and antifungal activities of octominin-CNP and free octominin against A. baumannii and C. albicans were confirmed at the MIC and MBC/MFC peptide concentrations.

[3] = system: Acinetobacter baumannii
Procedure: as §1

MIC [2]: 50 mg/L (≈ 19 µM) | minimum inhibitory concentration (MIC) [3]: 5 mg/L (≈ 1.9 µM)
Compound: CC[C@H](C)[C@H](NC(=O)[C@H](C)NC(=O)[C@H](CCCCN)NC(=O)CNC(=O)[C@H](C)NC(=O)[C@H](Cc1c[nH]cn1)NC(=O)[C@@H](NC(=O)[C@H](C)NC(=O)CNC(=O)[C@H](CCCNC(=N)N)NC(=O)[C@@H](NC(=O)[C@H](CC(C)C)NC(=O)[C@H](Cc1c[nH]c2ccccc12)NC(=O)CN)[C@@H](C)CC)[C@@H](C)CC)C(=O)N[C@@H](Cc1c[nH]cn1)C(=O)NCC(=O)N[C@@H](CC(C)C)C(=O)N[C@H](C(=O)N[C@@H](Cc1c[nH]cn1)C(=O)N[C@@H](CCCNC(=N)N)C(=O)N[C@@H](CCCNC(=N)N)C(=O)N[C@@H](CCCNC(=N)N)C(=O)N[C@@H](Cc1c[nH]cn1)C(=O)O)[C@@H](C)CC [octominin] (H-GWLIRGAIHAGKAIHGLIHRRRH-OH)
viability at 24 h, 400 µg/mL [1]: 85.2% | minimum fungicidal concentration (MFC) [2]: 200 mg/L (≈ 76.2 µM) | minimum bactericidal concentration (MBC) [3]: 10 mg/L (≈ 3.81 µM)
